Data reported in patent publication US9751857B2, “Hepatitis B antiviral agents” (NOVIRA THERAPEUTICS, INC., priority 2011, dated 2017).

Legend:
[1] = target: HBV C150Bo capsid protein (HBV CA protein) (Hepatitis B virus genotype D subtype adw, UniProt P03147, C107A/C48A/C61A/R150C); assay: HBV assembly assay (fluorescence quenching in vitro assembly); format: biochemical; conditions: for Activity in HBV assembly assay: at 10 μM
[2] = tested on: HBV replication in HepG2-2.2.15 cells; assay: Dot-blot assay of HBV replication; format: cell-based; conditions: Hepatitis B virus, 144 h
Procedure: Compounds active in the HBV assembly assay are tested for their activity and toxicity in cellular assay. In the first anti-viral assay, the ability of compounds to inhibit HBV replication in an HBV-producing hepatoma cell line using the dot-blot method is evaluated.
Briefly, confluent monolayers of HepG2-2.2.15 cells are incubated with complete medium containing various concentrations of a test compound. Three days later, the culture medium is replaced with fresh medium containing the appropriately diluted test compound. Six days following the initial administration of the test compound, the cell culture supernatant is collected, and cell lysis is performed. The samples are applied onto Nylos membranes and DNA is immobilized to the membrane by UV cross-linking. After pre-hybridization, the HBV probe is added and the hybridization is performed overnight. The membranes are exposed to the Kodak films; antiviral activity is calculated from the reduction in HBV DNA levels (EC50). The EC50 for antiviral activity is calculated from the dose response curves of active compounds.
In the first anti-viral assay, the ability of compounds to inhibit HBV replication in an HBV-producing hepatoma cell line using the dot-blot method was evaluated.
Confluent monolayers of HepG2-2.2.15 cells were incubated with complete medium containing various concentrations of a test compound. Three days later, the culture medium was replaced with fresh medium containing the appropriately diluted test compound. Six days following the initial administration of the test compound, the cell culture supernatant was collected, and cell lysis was performed. The samples were applied onto Nylos membranes and DNA was immobilized to the membrane by UV cross-linking. After pre-hybridization, the HBV probe was added and the hybridization was performed overnight. The membranes were exposed to the Kodak films; antiviral activity was calculated from the reduction in HBV DNA levels (EC50). The EC50 for antiviral activity was calculated from the dose response curves of active compounds. […]

Chain of HBV C150Bo capsid protein (HBV CA protein) (P03147 1-150 C48A/C61A/C107A/R150C): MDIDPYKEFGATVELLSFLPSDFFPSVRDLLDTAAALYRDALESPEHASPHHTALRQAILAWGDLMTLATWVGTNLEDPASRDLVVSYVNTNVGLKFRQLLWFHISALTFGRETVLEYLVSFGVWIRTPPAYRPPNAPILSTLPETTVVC

| Structure (SMILES) | Activity in HBV assembly assay [1] | inhibition at 10 µM [2] [%] | EC50 in HBV assembly assay ([1]; control compounds) |
| --- | --- | --- | --- |
| COC(=O)c1ccc(C(=O)Nc2cc(F)c(F)c(F)c2)cc1S(=O)(=O)N1CCC(O)CC1 [compound 927] | + (‘+’ indicates >50% activity at 10 μM) | > 50 | – |
| O=C(Nc1ccc(F)c(Cl)c1)c1cc(S(=O)(=O)N2CCC(O)CC2)ccc1F [compound 885] | + (‘+’ indicates >50% activity at 10 μM) | > 50 | – |
| CN(CC(O)CO)S(=O)(=O)c1cccc(C(=O)Nc2cccc(Cl)c2)c1 (stereo not drawn) [compound 366] | + (‘+’ indicates >50% activity at 10 μM) | > 50 | – |
| O=C(Nc1cccc(Br)c1)c1cccc(S(=O)(=O)N2CC(O)C2)c1 [compound 078] | + (‘+’ indicates >50% activity at 10 μM) | > 50 | – |
| O=C(Nc1ccc(F)c(Cl)c1)c1ccc(Cl)c(S(=O)(=O)N2CCCC2CO)c1 (stereo not drawn) [1094S] | + (‘+’ indicates >50% activity at 10 μM) | > 50 | – |
| O=C(Nc1cc(F)c(F)c(F)c1)c1cccc(S(=O)(=O)N2CCC(CO)CC2)c1 [compound 258] | + (‘+’ indicates >50% activity at 10 μM) | > 50 | – |
| O=C(Nc1ccc(F)c(Cl)c1)c1cccc(S(=O)(=O)N2CCC(O)(CO)CC2)c1 [compound 501] | + (‘+’ indicates >50% activity at 10 μM) | > 50 | – |
| O=C(Nc1ccc(F)c(CF)c1)c1cccc(S(=O)(=O)N2CC(O)C2)c1 [compound 646] | + (‘+’ indicates >50% activity at 10 μM) | > 50 | – |
| O=C(Nc1ccc(F)c(Cl)c1)c1cc(S(=O)(=O)NC2CC(O)C2)ccc1Cl (stereo not drawn) [1134CT2] | + (‘+’ indicates >50% activity at 10 μM) | > 50 | – |
| O=C(Nc1cc(F)c(F)c(F)c1)c1ccc(F)c(S(=O)(=O)C2CCC(CO)C(O)C2)c1 (stereo not drawn) [946D2] | + (‘+’ indicates >50% activity at 10 μM) | > 50 | – |
| O=C(Nc1ccc(F)c(Br)c1)c1cccc(S(=O)(=O)N2CC(O)C2)c1 [compound 407] | + (‘+’ indicates >50% activity at 10 μM) | > 50 | – |
| O=C(Nc1cc(F)c(F)c(F)c1)c1cc(S(=O)(=O)N2CCC(O)CC2)ccc1Cl [compound 1149] | + (‘+’ indicates >50% activity at 10 μM) | > 50 | – |
| O=C(Nc1ccc(F)c(F)c1)c1cc(S(=O)(=O)N2CC(O)C(F)C2)c(F)cc1Cl (stereo not drawn) [compound 1413] | + (‘+’ indicates >50% activity at 10 μM) | > 50 | – |
| CC1CN(S(=O)(=O)c2cccc(C(=O)Nc3cc(F)c(F)c(F)c3)c2)CCC1CCO (stereo not drawn) [743D1] | + (‘+’ indicates >50% activity at 10 μM) | > 50 | – |
| O=C(Nc1ccc(F)c(Br)c1)c1ccc(Cl)c(S(=O)(=O)N2CCC(O)(CO)CC2)c1 [compound 1099] | + (‘+’ indicates >50% activity at 10 μM) | > 50 | – |
| Cc1ccc(S(=O)(=O)N2CCC(O)CC2)cc1C(=O)Nc1cc(F)c(F)c(F)c1 [compound 928] | + (‘+’ indicates >50% activity at 10 μM) | > 50 | – |
| Cc1cc(NC(=O)c2cccc(S(=O)(=O)N3CCC(C)(CO)CC3)c2)ccc1F [compound 478] | + (‘+’ indicates >50% activity at 10 μM) | > 50 | – |
| O=C(Nc1cc(F)c(F)c(F)c1)c1ccc(CO)c(S(=O)(=O)N2CCC(O)CC2)c1 [compound 1420] | + (‘+’ indicates >50% activity at 10 μM) | > 50 | – |
| O=C(Nc1cc(F)c(F)c(F)c1)c1cc(S(=O)(=O)N2CCC(O)(CO)CC2)c(F)cc1Cl [compound 1379] | + (‘+’ indicates >50% activity at 10 μM) | > 50 | – |
| COC(=O)C1=C(C)NC(c2ccccn2)=NC1c1ccc(F)cc1Cl (stereo not drawn) [HAP-1, reference compound] | – | – | consistent with the literature |
| CC1(O)CCN(S(=O)(=O)c2cc(C(=O)Nc3cc(F)c(F)c(F)c3)ccc2F)CC1 [compound 1161] | + (‘+’ indicates >50% activity at 10 μM) | > 50 | – |
| Cc1cc(NC(=O)c2cccc(S(=O)(=O)N3CCN(C(=O)C4CC4)CC3)c2)ccc1F [compound 148] | + (‘+’ indicates >50% activity at 10 μM) | > 50 | – |

| Structure (SMILES) | Activity in HBV assembly assay [1] | inhibition at 10 µM [2] [%] | EC50 in HBV assembly assay ([1]; control compounds) |
| --- | --- | --- | --- |
| O=C(Nc1ccc(F)c(F)c1)c1cc(S(=O)(=O)NC2CC(O)C2)c(F)cc1Cl (stereo not drawn) [1378CT2] | + (‘+’ indicates >50% activity at 10 μM) | > 50 | – |
| O=C(Nc1cc(F)c(F)c(F)c1)c1cc(S(=O)(=O)N2CCC(O)(CO)CC2)ccc1Cl [compound 1189] | + (‘+’ indicates >50% activity at 10 μM) | > 50 | – |
| O=C(Nc1ccc(F)c(Cl)c1)c1ccc(F)c(S(=O)(=O)N2CCC(CO)C(O)C2)c1 (stereo not drawn) [955D1] | + (‘+’ indicates >50% activity at 10 μM) | > 50 | – |
| CN(CCO)S(=O)(=O)c1cc(C(=O)Nc2ccc(F)c(Cl)c2)c(Cl)cc1F [compound 1345] | + (‘+’ indicates >50% activity at 10 μM) | > 50 | – |
| O=C(Nc1ccc(F)c(C(F)F)c1)c1cccc(S(=O)(=O)N2CCC(O)C(F)C2)c1 (stereo not drawn) [820D2] | + (‘+’ indicates >50% activity at 10 μM) | > 50 | – |
| O=C(Nc1ccc(F)c(Cl)c1)c1cccc(S(=O)(=O)N2CCC(O)C(Cc3ccccc3)C2)c1 (stereo not drawn) [713D2] | + (‘+’ indicates >50% activity at 10 μM) | > 50 | – |
| O=C(Nc1cc(F)c(F)c(F)c1)c1ccc(F)c(S(=O)(=O)N2CCC(CCO)CC2)c1 [compound 900] | + (‘+’ indicates >50% activity at 10 μM) | > 50 | – |
| O=C(Nc1ccc(F)c(F)c1)c1cc(S(=O)(=O)N2CCC(O)CC2)c(F)cc1Cl [compound 1338] | + (‘+’ indicates >50% activity at 10 μM) | > 50 | – |
| O=C(Nc1ccc(F)c(Cl)c1)c1cc(S(=O)(=O)N2CC(O)C(F)C2)c(F)cc1Cl (stereo not drawn) [compound 1410] | + (‘+’ indicates >50% activity at 10 μM) | > 50 | – |
| O=C(Nc1cc(F)c(F)c(Cl)c1)c1ccc(F)c(S(=O)(=O)N2CCC(O)C(F)C2)c1 (stereo not drawn) [1135D1] | + (‘+’ indicates >50% activity at 10 μM) | > 50 | – |
| O=C(Nc1cccc(Br)c1)c1cccc(S(=O)(=O)N2CCN(C(=O)C3(O)CC3)CC2)c1 [compound 129] | + (‘+’ indicates >50% activity at 10 μM) | > 50 | – |
| CC(=O)N1CCN(S(=O)(=O)c2cccc(C(=O)Nc3cccc(Br)c3)c2)CC1 [compound 119] | + (‘+’ indicates >50% activity at 10 μM) | > 50 | – |
| O=C(Nc1ccc(F)c(Br)c1)c1cccc(S(=O)(=O)NC2CCCC2O)c1 (stereo not drawn) [compound 843] | + (‘+’ indicates >50% activity at 10 μM) | > 50 | – |
| O=C(Nc1cc(F)c(F)c(F)c1)c1cc(S(=O)(=O)NC2CCCC2O)ccc1Cl (stereo not drawn) [compound 1113] | + (‘+’ indicates >50% activity at 10 μM) | > 50 | – |
| O=C(Nc1ccc(F)c(Cl)c1)c1cccc(S(=O)(=O)N2CCC(CO)C(O)C2)c1 (stereo not drawn) [725D1] | + (‘+’ indicates >50% activity at 10 μM) | > 50 | – |
| O=C(Nc1cc(F)c(F)c(F)c1)c1cc(S(=O)(=O)N2CC(O)C2)ccc1Cl [compound 1153] | + (‘+’ indicates >50% activity at 10 μM) | > 50 | – |
| O=C(Nc1cccc(Br)c1)c1cccc(S(=O)(=O)N2CCC(CO)CC2)c1 [compound 065] | + (‘+’ indicates >50% activity at 10 μM) | > 50 | – |
| O=C(Nc1cc(F)c(F)c(F)c1)c1cccc(S(=O)(=O)N2CCC(O)CC2)c1 [compound 318] | + (‘+’ indicates >50% activity at 10 μM) | > 50 | – |
| O=C(Nc1cc(F)c(F)c(F)c1)c1ccc(Cl)c(S(=O)(=O)N2CCC(O)(CO)CC2)c1 [compound 1130] | + (‘+’ indicates >50% activity at 10 μM) | > 50 | – |
| O=C(Nc1cc(F)c(F)c(F)c1)c1cc(S(=O)(=O)NC2CC(O)C2)c(F)cc1Cl (stereo not drawn) [1374CT2] | + (‘+’ indicates >50% activity at 10 μM) | – | – |
| O=C(Nc1cc(F)c(F)c(F)c1)c1ccc(F)c(S(=O)(=O)N2CCC(O)C(F)C2)c1 (single isomer, unassigned) [960D2] | + (‘+’ indicates >50% activity at 10 μM) | – | – |
| O=C(Nc1ccc(F)c(Cl)c1)c1ccc(F)c(S(=O)(=O)N2CCC(CO)C(O)C2)c1 (stereo not drawn) [955D2] | + (‘+’ indicates >50% activity at 10 μM) | – | – |
